Conditions: Liquid; for viscosity: Concentric cylinders viscometry

CCn1cc[n+](C)c1.N#C[B-](C#N)(C#N)C#N [1-ethyl-3-methylimidazolium tetracyanoborate]
100 kPa
Conditions | viscosity [mPa·s]
293.15 K | 22.11
303.15 K | 15.38
313.15 K | 11.23
323.15 K | 8.55
333.15 K | 6.751
343.15 K | 5.473
353.15 K | 4.537
363.15 K | 3.833
373.15 K | 3.289

Conditions | mass density [kg/m3]
293.15 K, 100 kPa, Vibrating tube method | 1040.5
303.15 K, 100 kPa, Vibrating tube method | 1032.7
311.8 K, 10000 kPa, Bellows volumetry | 1031.2
311.8 K, 20000 kPa, Bellows volumetry | 1036.6
311.8 K, 30000 kPa, Bellows volumetry | 1041.7
311.8 K, 40000 kPa, Bellows volumetry | 1046.6
311.8 K, 50000 kPa, Bellows volumetry | 1051.3
311.8 K, 60000 kPa, Bellows volumetry | 1055.9
311.8 K, 70000 kPa, Bellows volumetry | 1060.3
311.8 K, 80000 kPa, Bellows volumetry | 1064.6
311.8 K, 90000 kPa, Bellows volumetry | 1068.7
311.8 K, 100000 kPa, Bellows volumetry | 1072.8
311.8 K, 110000 kPa, Bellows volumetry | 1076.8
311.8 K, 120000 kPa, Bellows volumetry | 1080.6
311.8 K, 130000 kPa, Bellows volumetry | 1084.3
311.8 K, 140000 kPa, Bellows volumetry | 1088
311.8 K, 150000 kPa, Bellows volumetry | 1091.6
311.8 K, 160000 kPa, Bellows volumetry | 1095.1
311.8 K, 170000 kPa, Bellows volumetry | 1098.5
311.8 K, 180000 kPa, Bellows volumetry | 1101.9
311.8 K, 190000 kPa, Bellows volumetry | 1105.1
311.8 K, 200000 kPa, Bellows volumetry | 1108.5
313.15 K, 100 kPa, Vibrating tube method | 1024.9
323.15 K, 100 kPa, Vibrating tube method | 1017.2
331.7 K, 10000 kPa, Bellows volumetry | 1016.3
331.7 K, 20000 kPa, Bellows volumetry | 1021.9
331.7 K, 30000 kPa, Bellows volumetry | 1027.4
331.7 K, 40000 kPa, Bellows volumetry | 1032.6
331.7 K, 50000 kPa, Bellows volumetry | 1037.5
331.7 K, 60000 kPa, Bellows volumetry | 1042.3
331.7 K, 70000 kPa, Bellows volumetry | 1046.9
331.7 K, 80000 kPa, Bellows volumetry | 1051.4
331.7 K, 90000 kPa, Bellows volumetry | 1055.7
331.7 K, 100000 kPa, Bellows volumetry | 1059.9
331.7 K, 110000 kPa, Bellows volumetry | 1064
331.7 K, 120000 kPa, Bellows volumetry | 1068
331.7 K, 130000 kPa, Bellows volumetry | 1071.9
331.7 K, 140000 kPa, Bellows volumetry | 1075.6
331.7 K, 150000 kPa, Bellows volumetry | 1079.2
331.7 K, 160000 kPa, Bellows volumetry | 1082.9
331.7 K, 170000 kPa, Bellows volumetry | 1086.4
331.7 K, 180000 kPa, Bellows volumetry | 1089.9
331.7 K, 190000 kPa, Bellows volumetry | 1093.3
331.7 K, 200000 kPa, Bellows volumetry | 1096.7
333.15 K, 100 kPa, Vibrating tube method | 1009.6
343.15 K, 100 kPa, Vibrating tube method | 1002
351.8 K, 10000 kPa, Bellows volumetry | 1001.6
351.8 K, 20000 kPa, Bellows volumetry | 1007.5
351.8 K, 30000 kPa, Bellows volumetry | 1013.3
351.8 K, 40000 kPa, Bellows volumetry | 1018.7
351.8 K, 50000 kPa, Bellows volumetry | 1024
351.8 K, 60000 kPa, Bellows volumetry | 1029
351.8 K, 70000 kPa, Bellows volumetry | 1033.8
351.8 K, 80000 kPa, Bellows volumetry | 1038.5
351.8 K, 90000 kPa, Bellows volumetry | 1043
351.8 K, 100000 kPa, Bellows volumetry | 1047.3
351.8 K, 110000 kPa, Bellows volumetry | 1051.5
351.8 K, 120000 kPa, Bellows volumetry | 1055.7
351.8 K, 130000 kPa, Bellows volumetry | 1059.7
351.8 K, 140000 kPa, Bellows volumetry | 1063.6
351.8 K, 150000 kPa, Bellows volumetry | 1067.4
351.8 K, 160000 kPa, Bellows volumetry | 1071.2
351.8 K, 170000 kPa, Bellows volumetry | 1074.8
351.8 K, 180000 kPa, Bellows volumetry | 1078.4
351.8 K, 190000 kPa, Bellows volumetry | 1081.9
351.8 K, 200000 kPa, Bellows volumetry | 1085.3
353.15 K, 100 kPa, Vibrating tube method | 994.8
363.15 K, 100 kPa, Vibrating tube method | 987.5
372 K, 10000 kPa, Bellows volumetry | 987.2
372 K, 20000 kPa, Bellows volumetry | 993.6
372 K, 30000 kPa, Bellows volumetry | 999.6
372 K, 40000 kPa, Bellows volumetry | 1005.4
372 K, 50000 kPa, Bellows volumetry | 1010.8
372 K, 60000 kPa, Bellows volumetry | 1016
372 K, 70000 kPa, Bellows volumetry | 1021
372 K, 80000 kPa, Bellows volumetry | 1025.9
372 K, 90000 kPa, Bellows volumetry | 1030.5
372 K, 100000 kPa, Bellows volumetry | 1035.1
372 K, 110000 kPa, Bellows volumetry | 1039.5
372 K, 120000 kPa, Bellows volumetry | 1043.8
372 K, 130000 kPa, Bellows volumetry | 1048
372 K, 140000 kPa, Bellows volumetry | 1052.1
372 K, 150000 kPa, Bellows volumetry | 1055.9
372 K, 160000 kPa, Bellows volumetry | 1059.8
372 K, 170000 kPa, Bellows volumetry | 1063.5
372 K, 180000 kPa, Bellows volumetry | 1067.2
372 K, 190000 kPa, Bellows volumetry | 1070.9
372 K, 200000 kPa, Bellows volumetry | 1074.4
373.15 K, 100 kPa, Vibrating tube method | 980.3
392.1 K, 10000 kPa, Bellows volumetry | 973
392.1 K, 20000 kPa, Bellows volumetry | 979.8
392.1 K, 30000 kPa, Bellows volumetry | 986.2
392.1 K, 40000 kPa, Bellows volumetry | 992.2
392.1 K, 50000 kPa, Bellows volumetry | 998
392.1 K, 60000 kPa, Bellows volumetry | 1003.4
392.1 K, 70000 kPa, Bellows volumetry | 1008.6
392.1 K, 80000 kPa, Bellows volumetry | 1013.8
392.1 K, 90000 kPa, Bellows volumetry | 1018.6
392.1 K, 100000 kPa, Bellows volumetry | 1023.3
392.1 K, 110000 kPa, Bellows volumetry | 1028
392.1 K, 120000 kPa, Bellows volumetry | 1032.4
392.1 K, 130000 kPa, Bellows volumetry | 1036.6
392.1 K, 140000 kPa, Bellows volumetry | 1040.8
392.1 K, 150000 kPa, Bellows volumetry | 1044.9
392.1 K, 160000 kPa, Bellows volumetry | 1048.8
392.1 K, 170000 kPa, Bellows volumetry | 1052.8
392.1 K, 180000 kPa, Bellows volumetry | 1056.5
392.1 K, 190000 kPa, Bellows volumetry | 1060.2
392.1 K, 200000 kPa, Bellows volumetry | 1063.9
412.2 K, 10000 kPa, Bellows volumetry | 959.2
412.2 K, 20000 kPa, Bellows volumetry | 966.3
412.2 K, 30000 kPa, Bellows volumetry | 973
412.2 K, 40000 kPa, Bellows volumetry | 979.4
412.2 K, 50000 kPa, Bellows volumetry | 985.4
412.2 K, 60000 kPa, Bellows volumetry | 991.1
412.2 K, 70000 kPa, Bellows volumetry | 996.6
412.2 K, 80000 kPa, Bellows volumetry | 1001.9
412.2 K, 90000 kPa, Bellows volumetry | 1007
412.2 K, 100000 kPa, Bellows volumetry | 1011.9
412.2 K, 110000 kPa, Bellows volumetry | 1016.6
412.2 K, 120000 kPa, Bellows volumetry | 1021.2
412.2 K, 130000 kPa, Bellows volumetry | 1025.7
412.2 K, 140000 kPa, Bellows volumetry | 1030
412.2 K, 150000 kPa, Bellows volumetry | 1034.1
412.2 K, 160000 kPa, Bellows volumetry | 1038.2
412.2 K, 170000 kPa, Bellows volumetry | 1042.2
412.2 K, 180000 kPa, Bellows volumetry | 1046.1
412.2 K, 190000 kPa, Bellows volumetry | 1049.9
412.2 K, 200000 kPa, Bellows volumetry | 1053.6

Reference: the NIST ThermoML archive (doi:10.1021/acs.jced.7b00773)
